Measured values: patent publication US11230535B2, “CFTR regulators and methods of use thereof” (THE REGENTS OF THE UNIVERSITY OF CALIFORNIA, priority 2015, dated 2022)
Like-named read-outs stand apart in the source and are kept apart here. Positions of bridges follow the written chain, without caps; N, C: chain ends. Residues, ends and D or L forms follow the SMILES beside them.

Experiments:
[1] = system: CFTR activity at the ocular surface; assay: Ocular surface potential difference (PD) in living mice; assay type: in vivo, mouse; conditions: CF mice lacking functional CFTR
Procedure: (§1) Open-circuit transepithelial PD were measured continuously in anesthetized mice in response to serial perfusions of different solutions over the ocular surface, as described (21). Mice were anesthetized with Avertin (2,2,2-tribromoethanol, 125 mg/kg intraperitoneal, Sigma-Aldrich, St. Louis, Mo., USA), and core temperature was maintained at 37° C. using a heating pad. Eyes were oriented with the cornea and conjunctiva facing upward and exposed by retracting the eyelid with cross-action forceps. Solutions were isosmolar (320±10 mOsM; compositions provided in ref. 21) and contained 10μ[…] Qindomethacin to prevent CFTR activation by prostaglandins. The ocular surface was perfused at 6 mL/min through plastic tubing using a multireservoir gravity pinch-valve system (ALA Scientific, Westbury, N.Y., USA) and variable-flow peristaltic pump (medium flow model; Fisher Scientific, Fair Lawn, N.J., USA). A probe catheter was fixed 1 mm above the cornea using a micropositioner and a suction cannula was positioned 3 mm from the orbit. The measuring electrode was in contact to the perfusion catheter and connected to a high-impedance voltmeter (IsoMilivolt Meter; WPI). The reference electrode was grounded via a winged 21-gauge needle filled with isosmolar saline, and inserted subcutaneously in the abdomen. Measuring and reference electrodes consisted of Ag/AgCl with 3 M KCl agar bridges.
An open-circuit potential difference (PD) method developed in our lab was used to evaluate compound activity at the ocular surface in vivo, as depicted in FIG. 3A (21). Cl^− channel function was quantified by measuring PD during continuous perfusion of the ocular surface with a series of solutions that imposed a transepithelial Cl^− gradient and contained various channel agonists and/or inhibitors. The ocular surface was first perfused with isosmolar saline to record the baseline PD. Amiloride was then added to the perfusate, followed by exchange to a low Cl^− solution in which Cl^− with an impermeant anion, gluconate. These maneuvers allow for direct visualization of CFTR activation in response to addition of candidate CFTR activators.
as §1, with “Ocular surface potential difference measurements. Open-circuit” for “Open-circuit”, “indomethacin” for “Qindomethacin”, “Measuring and reference electrodes consisted of Ag/AgCl with 3 M KCl agar bridges.” left out

[2] = biological target: T1, human wild-type CFTR (Homo sapiens, UniProt P13569); assay: Short-circuit current in FRT cells expressing wild-type human CFTR; assay type: cell-based; parameters: expressed in transfected cells; conditions: 100% = 20 μM forskolin
Procedure: Short-circuit current was measured in FRT cells stably expressing wild-type human CFTR cultured on porous filters as described. The basolateral solution contained 130 mM NaCl, 2.7 mM KCl, 1.5 mM KH2PO4, 1 mM CaCl2, 0.5 mM MgCl2, 10 mM glucose, and 10 mM Na-HEPES (pH 7.3, 37° C.). In the apical solution 65 mM NaCl was replaced by Na gluconate, and CaCl2 was increased to 2 mM, and the basolateral membrane was permeabilized with 250 μg/ml amphotericin B. Short-circuit current was measured in freshly harvested adult mouse colon at 37° C. using symmetrical Krebs-bicarbonate buffer.
(§2) Fischer rat thyroid (FRT) cells stably expressing wild-type human CFTR were cultured on Snapwell inserts (Corning Costar, Corning N.Y., USA) for short-circuit current (Isc) measurements. After 6-9 days in culture, when the transepithelial resistance was >1000 Ω/cm^2, the inserts were mounted in an Ussing chamber system (World Precision Instruments, Sarasota, Fla., USA). The basolateral solution contained 130 mM NaCl, 2.7 mM KCl, 1.5 mM KH2PO4, 1 mM CaCl2, 0.5 mM MgCl2, 10 mM glucose, and 10 mM Na-HEPES (pH 7.3). In the apical bathing solution, 65 mM NaCl was replaced by Na gluconate, and CaCl2 was increased to 2 mM. Both solutions were bubbled with air and maintained at 37° C. The basolateral membrane was permeabilized with 250 μg/ml amphotericin B (26, 27). Hemichambers were connected to a DVC-1000 voltage clamp via Ag/AgCl electrodes and 3 M KCl agar bridges for Isc recording.
Short-circuit current measurement. Short-circuit current was measured in FRT cells stably expressing wild-type human CFTR cultured on porous filters as described. The basolateral solution contained 130 mM NaCl, 2.7 mM KCl, 1.5 mM KH2PO4, 1 mM CaCl2, 0.5 mM MgCl2, 10 mM glucose, and 10 mM Na-HEPES (pH 7.3, 37° C.). In the apical solution 65 mM NaCl was replaced by Na gluconate, and CaCl2 was increased to 2 mM, and the basolateral membrane was permeabilized with 250 μg/ml amphotericin B. Short-circuit current was measured in freshly harvested adult mouse colon at 37° C. using symmetrical Krebs-bicarbonate buffer.
as §2, with “Short-circuit current. Fischer” for “Fischer”
Short-circuit current measurement. Short-circuit current measurements were done as described. Briefly, Snapwell (Corning Costar, Corning, N.Y.) inserts containing CFTR-expressing FRT cells or human bronchial epithelial cells were mounted in Ussing chambers (Physiological Instruments, San Diego, Calif.). For FRT cells the hemichambers were filled with 5 ml of HCO3^−-buffered solution (basolateral) and half-Cl^− solution (apical), and the basolateral membrane was permeabilized with 250 μg/ml amphotericin B. Symmetrical HCO3^−-buffered solutions were used for human bronchial epithelial cells. Solutions were bubbled with 95% O2/5% CO2 and maintained at 37° C., and short-circuit current was measured on a DVC-1000 voltage clamp (World Precision Instruments Inc., Sarasota, Fla.) using Ag/AgCl electrodes and 3 M KCl agar bridges.

[3] = biological target: T1, human wild-type CFTR; assay: Cell-based plate reader (YFP iodide influx) assay of CFTR function; parameters: expressed in transfected cells; host or cells: Fischer rat thyroid (FRT) cells stably co-expressing YFP-H148Q; conditions: commercial analogs
Procedure: The initiate rate of I^− influx was computed by determined using exponential regression. All compound plates contained negative controls (DMSO vehicle) and positive controls (20 μM forskolin).
High-throughput screening. […] The initiate rate of I^− influx was computed by determined using exponential regression. All compound plates contained negative controls (DMSO vehicle) and positive controls ([…] forskolin).
Platereader assays of chloride channel function. CFTR activity was assayed as described. […] I^− influx was measured in a plate reader with initial baseline read for 2 s and then for 12 s after rapid addition of an I^−-containing solution. TMEM16A activity was assayed similarly as described using FRT cells co-expressing YFP and TMEM16A. Activity of non-TMEM16A CaCC was assayed as described in HT-29 cells expressing YFP. In each assay initial rates of I^− influx were computed as a linear measure of channel function.

[4] = system: loperamide-treated mice; assay: Loperamide-induced mouse model of constipation (3-h stool weight, pellet number, water content); conditions: oral 0.5 mg/kg, loperamide-treated mice
[5] = system: constipation patients; conditions: cited from earlier work

T1 sequence (P13569 whole entry): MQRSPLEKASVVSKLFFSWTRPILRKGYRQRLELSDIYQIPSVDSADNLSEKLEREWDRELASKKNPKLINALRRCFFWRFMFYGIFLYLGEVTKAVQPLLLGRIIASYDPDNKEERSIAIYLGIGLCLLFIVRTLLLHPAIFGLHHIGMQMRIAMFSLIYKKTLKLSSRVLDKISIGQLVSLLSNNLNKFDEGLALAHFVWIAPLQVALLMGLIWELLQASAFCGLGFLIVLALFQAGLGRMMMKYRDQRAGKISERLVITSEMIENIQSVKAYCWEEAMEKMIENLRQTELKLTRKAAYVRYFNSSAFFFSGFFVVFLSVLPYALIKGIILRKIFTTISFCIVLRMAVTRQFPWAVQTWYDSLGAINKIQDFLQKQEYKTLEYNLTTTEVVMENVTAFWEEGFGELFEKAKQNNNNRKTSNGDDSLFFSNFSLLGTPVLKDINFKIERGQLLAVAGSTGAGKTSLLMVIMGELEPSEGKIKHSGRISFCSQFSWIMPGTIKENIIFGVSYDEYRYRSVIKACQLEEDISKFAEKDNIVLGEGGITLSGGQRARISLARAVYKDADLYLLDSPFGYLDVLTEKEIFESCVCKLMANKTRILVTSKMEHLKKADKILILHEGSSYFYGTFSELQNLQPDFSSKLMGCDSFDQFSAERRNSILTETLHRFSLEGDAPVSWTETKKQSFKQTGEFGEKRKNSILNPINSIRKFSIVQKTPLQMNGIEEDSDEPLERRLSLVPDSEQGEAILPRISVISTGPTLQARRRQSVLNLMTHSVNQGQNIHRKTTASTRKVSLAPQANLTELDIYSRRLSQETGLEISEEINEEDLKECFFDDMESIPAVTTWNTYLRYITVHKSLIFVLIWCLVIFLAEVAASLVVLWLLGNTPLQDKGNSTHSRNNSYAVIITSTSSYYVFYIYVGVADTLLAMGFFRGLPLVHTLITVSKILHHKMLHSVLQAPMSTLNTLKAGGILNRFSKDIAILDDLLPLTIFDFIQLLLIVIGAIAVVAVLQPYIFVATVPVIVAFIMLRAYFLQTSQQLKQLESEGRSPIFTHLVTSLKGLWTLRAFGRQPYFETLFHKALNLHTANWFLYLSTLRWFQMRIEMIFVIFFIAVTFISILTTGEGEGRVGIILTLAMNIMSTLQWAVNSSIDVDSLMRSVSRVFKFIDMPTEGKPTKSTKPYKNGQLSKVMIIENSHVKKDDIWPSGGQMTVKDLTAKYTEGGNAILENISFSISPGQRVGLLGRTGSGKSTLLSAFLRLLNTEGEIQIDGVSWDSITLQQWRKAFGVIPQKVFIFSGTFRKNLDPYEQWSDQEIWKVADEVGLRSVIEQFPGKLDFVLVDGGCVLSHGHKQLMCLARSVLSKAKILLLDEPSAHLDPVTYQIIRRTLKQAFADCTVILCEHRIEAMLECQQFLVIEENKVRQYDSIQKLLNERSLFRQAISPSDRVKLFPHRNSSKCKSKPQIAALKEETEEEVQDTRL

Row | SMILES | change in ocular surface PD in CF mice [1] | CFTR activation, Vmax [2] [% Vmax] | % Activation ([3]; FRT cells with YFP and wildtype CFTR, 125 nM forskolin) [%] | EC50 ([3]; read-out: EC50 (full-dose response assay, compounds >80% activation)) [µM] | stool output response as % of the maximal CFTRact-J027 response [4] [%] | patients in whom the drug was effective ([5]; chronic constipation patients) [%] | patients in whom the drug was effective ([5]; IBS-C patients) [%]
1 | CNc1nc(Nc2ccc([N+](=O)[O-])cc2)nc(OCC(F)(F)C(F)F)n1 [K032] | no changes in PD | ~50 | 105 | 0.07 | – | – | –
2 | C[C@@H]1NC(=O)[C@@H]2CCCN2C(=O)[C@H](CC(N)=O)NC(=O)[C@@H]2CSSC[C@H](N)C(=O)N[C@H]3CSSC[C@H](NC1=O)C(=O)N[C@@H]([C@@H](C)O)C(=O)NCC(=O)N[C@H](C(=O)N[C@@H](Cc1ccc(O)cc1)C(=O)O)CSSC[C@H](NC(=O)[C@H](Cc1ccc(O)cc1)NC(=O)[C@H](CCC(=O)O)NC3=O)C(=O)N2 [linaclotide, reference compound] (H-CCEYCCNPACTGCY-OH; disulfide 1-6, 2-10, 5-13) | – | – | – | – | 35 | ~20 | –
3 | CCCCC(F)(F)[C@@]1(O)CC[C@H]2[C@@H](CC(=O)[C@@H]2CCCCCCC(=O)O)O1 [lubiprostone, reference compound] | – | – | – | – | 50 | – | ~13
